In ChEMBL document CHEMBL5230103, “Hydroxamic acid hybrids as the potential anticancer agents: An Overview” (Eur J Med Chem, 2020):
pIC50: −log10 of the molar value. Each block holds one compound with its values, some of them ahead of it.

Assays:
NCI-H1299 = experiment: Cytotoxicity against human NCI-H1299 cells assessed as inhibition of cell growth by MTT assay; type: functional, cell-based
HepG2 [1] = experiment: Cytotoxicity against human HepG2 cells assessed as inhibition of cell growth by MTT assay; type: functional, cell-based
HCT-116 [2] = experiment: Cytotoxicity against human HCT-116 cells assessed as inhibition of cell growth by MTT assay; type: functional, cell-based
SMMC-7721 = experiment: Cytotoxicity against human SMMC-7721 cells assessed as inhibition of cell growth by MTT assay; type: functional, cell-based
K562 = experiment: Cytotoxicity against human K562 cells assessed as inhibition of cell growth by SRB assay; type: functional, cell-based
Raji = experiment: Cytotoxicity against human Raji cells assessed as inhibition of cell growth by SRB assay; type: functional, cell-based
MOLT-4 = experiment: Cytotoxicity against human MOLT-4 cells assessed as inhibition of cell growth by SRB assay; type: functional, cell-based
PC-3 [3] = experiment: Cytotoxicity against human PC-3 cells assessed as inhibition of cell growth by SRB assay; type: functional, cell-based
Histone deacetylase = experiment: Inhibition of HDAC (unknown origin); type: protein assay, Homo sapiens
MV4-11 = experiment: Cytotoxicity against human MV4-11 cells assessed as inhibition of cell growth by SRB assay; type: functional, cell-based
SNU-398 = experiment: Cytotoxicity against human SNU-398 cells assessed as inhibition of cell growth by SRB assay; type: functional, cell-based
MCF7 [4] = experiment: Cytotoxicity against human MCF7 cells assessed as inhibition of cell growth by SRB assay; type: functional, cell-based
[5] = Toxicity in BALB/c mouse assessed as maximum tolerated dose; conditions: in vivo
Ramos = experiment: Cytotoxicity against human Ramos cells assessed as inhibition of cell growth by SRB assay; type: functional, cell-based
Huh-7 = experiment: Cytotoxicity against human Huh-7 cells assessed as inhibition of cell growth by SRB assay; type: functional, cell-based
SU-DHL-6 = experiment: Cytotoxicity against human SU-DHL-6 cells assessed as inhibition of cell growth by SRB assay; type: functional, cell-based
PLC-PRF-5 = experiment: Cytotoxicity against human PLC-PRF-5 cells assessed as inhibition of cell growth by SRB assay; type: functional, cell-based
SNU-387 = experiment: Cytotoxicity against human SNU-387 cells assessed as inhibition of cell growth by SRB assay; type: functional, cell-based
[6] = Oral bioavailability in BALB/c mouse at 200 mg/kg; type: ADME, organism-based; conditions: in vivo
HepG2 [7] = experiment: Cytotoxicity against human HepG2 cells assessed as inhibition of cell growth by SRB assay; type: functional, cell-based
SK-HEP1 = experiment: Cytotoxicity against human SK-HEP1 cells assessed as inhibition of cell growth by SRB assay; type: functional, cell-based
518A2 [8] = experiment: Cytotoxicity against human 518A2 cells assessed as inhibition of cell growth by MTT assay; type: functional, cell-based
[9] = Selectivity index, ratio of IC50 for cytotoxicity against human HDFa cells to IC50 for cytotoxicity against human 518A2 cells; type: toxicity, cell-based; conditions: HDFa cells and 518A2 cells, pooled result: one value given for 6 cell lines, strains, targets or settings, read-out: Ratio IC50
MCF7 [10] = experiment: Cytotoxicity against human MCF7 cells assessed as inhibition of cell growth by MTT assay; type: functional, cell-based
EA.hy 926 = experiment: Potency index, ratio of vorinostat IC50 to test compound IC50 for cytotoxicity against human EA.hy 926 cells; type: functional
KB-V1 [11] = experiment: Potency index, ratio of vorinostat IC50 to test compound IC50 for cytotoxicity against human KB-V1 cells; type: functional
[12] = Cytotoxicity against human HDFa cells assessed as inhibition of cell proliferation by MTT assay; type: toxicity, cell-based
KB-V1 [13] = experiment: Cytotoxicity against human KB-V1 cells assessed as inhibition of cell growth by MTT assay; type: functional, cell-based
HT-29 [14] = experiment: Cytotoxicity against human HT-29 cells assessed as inhibition of cell growth by MTT assay; type: functional, cell-based
518A2 [15] = experiment: Potency index, ratio of vorinostat IC50 to test compound IC50 for cytotoxicity against human 518A2 cells; type: functional
DLD-1 [16] = experiment: Potency index, ratio of vorinostat IC50 to test compound IC50 for cytotoxicity against human DLD-1 cells; type: functional
DLD-1 [17] = experiment: Cytotoxicity against human DLD-1 cells assessed as inhibition of cell growth by SRB assay; type: functional, cell-based
MCF7 [18] = experiment: Potency index, ratio of vorinostat IC50 to test compound IC50 for cytotoxicity against human MCF7 cells; type: functional
HT-29 [19] = experiment: Potency index, ratio of vorinostat IC50 to test compound IC50 for cytotoxicity against human HT-29 cells; type: functional
SW-620 [20] = experiment: Potency index, ratio of vorinostat IC50 to test compound IC50 for cytotoxicity against human SW620 cells assessed as inhibition of cell growth by MTT assay; type: functional
PC-3 [21] = experiment: Potency index, ratio of vorinostat IC50 to test compound IC50 for cytotoxicity against human PC-3 cells assessed as inhibition of cell growth by MTT assay; type: functional
Histone deacetylase 2 = Histone deacetylase 2 (Homo sapiens, UniProt Q92769); experiment: Inhibition of HDAC2 (unknown origin)
ASPC1 [22] = experiment: Potency index, ratio of vorinostat IC50 to test compound IC50 for cytotoxicity against human ASPC1 cells assessed as inhibition of cell growth by MTT assay; type: functional
PC-3 [23] = experiment: Cytotoxicity against human PC-3 cells assessed as inhibition of cell growth by MTT assay; type: functional, cell-based
SW-620 [24] = experiment: Cytotoxicity against human SW620 cells assessed as inhibition of cell growth by MTT assay; type: functional, cell-based
[25] = Clearance in CD1 mouse at 2 mg/kg, iv; type: ADME, organism-based; conditions: in vivo
[26] = Half life in CD1 mouse at 2 mg/kg, iv; type: ADME, organism-based; conditions: in vivo
[27] = Cmax in CD1 mouse at 2 mg/kg, iv; type: ADME, organism-based; set-up: dose 2 mg/kg, route iv; conditions: in vivo
[28] = AUCinfinity in CD1 mouse at 2 mg/kg, iv; type: ADME, organism-based; set-up: dose 2 mg/kg, route iv; conditions: in vivo
Histone deacetylase 3 = Histone deacetylase 3 (Homo sapiens, UniProt O15379); experiment: Inhibition of HDAC3 (unknown origin)
ASPC1 [29] = experiment: Cytotoxicity against human ASPC1 cells assessed as inhibition of cell growth by MTT assay; type: functional, cell-based
MDA-MB-231 = experiment: Cytotoxicity against human MDA-MB-231 cells assessed as inhibition of cell growth by SRB assay; type: functional, cell-based
A549 = experiment: Cytotoxicity against human A549 cells assessed as inhibition of cell growth by SRB assay; type: functional
Histone deacetylase 1 = Histone deacetylase 1 (Homo sapiens, UniProt Q13547); experiment: Inhibition of HDAC1 (unknown origin)
ASPC1 [30] = experiment: Cytotoxicity against human ASPC1 cells assessed as inhibition of cell growth by SRB assay; type: functional, cell-based
HCT-116 [31] = experiment: Cytotoxicity against human HCT-116 cells assessed as inhibition of cell growth by SRB assay; type: functional, cell-based
[32] = target: T1, Protein deacetylase HDAC6 (Homo sapiens, UniProt Q9UBN7); experiment: Inhibition of HDAC6 (unknown origin)
T1 sequence (Q9UBN7 whole entry): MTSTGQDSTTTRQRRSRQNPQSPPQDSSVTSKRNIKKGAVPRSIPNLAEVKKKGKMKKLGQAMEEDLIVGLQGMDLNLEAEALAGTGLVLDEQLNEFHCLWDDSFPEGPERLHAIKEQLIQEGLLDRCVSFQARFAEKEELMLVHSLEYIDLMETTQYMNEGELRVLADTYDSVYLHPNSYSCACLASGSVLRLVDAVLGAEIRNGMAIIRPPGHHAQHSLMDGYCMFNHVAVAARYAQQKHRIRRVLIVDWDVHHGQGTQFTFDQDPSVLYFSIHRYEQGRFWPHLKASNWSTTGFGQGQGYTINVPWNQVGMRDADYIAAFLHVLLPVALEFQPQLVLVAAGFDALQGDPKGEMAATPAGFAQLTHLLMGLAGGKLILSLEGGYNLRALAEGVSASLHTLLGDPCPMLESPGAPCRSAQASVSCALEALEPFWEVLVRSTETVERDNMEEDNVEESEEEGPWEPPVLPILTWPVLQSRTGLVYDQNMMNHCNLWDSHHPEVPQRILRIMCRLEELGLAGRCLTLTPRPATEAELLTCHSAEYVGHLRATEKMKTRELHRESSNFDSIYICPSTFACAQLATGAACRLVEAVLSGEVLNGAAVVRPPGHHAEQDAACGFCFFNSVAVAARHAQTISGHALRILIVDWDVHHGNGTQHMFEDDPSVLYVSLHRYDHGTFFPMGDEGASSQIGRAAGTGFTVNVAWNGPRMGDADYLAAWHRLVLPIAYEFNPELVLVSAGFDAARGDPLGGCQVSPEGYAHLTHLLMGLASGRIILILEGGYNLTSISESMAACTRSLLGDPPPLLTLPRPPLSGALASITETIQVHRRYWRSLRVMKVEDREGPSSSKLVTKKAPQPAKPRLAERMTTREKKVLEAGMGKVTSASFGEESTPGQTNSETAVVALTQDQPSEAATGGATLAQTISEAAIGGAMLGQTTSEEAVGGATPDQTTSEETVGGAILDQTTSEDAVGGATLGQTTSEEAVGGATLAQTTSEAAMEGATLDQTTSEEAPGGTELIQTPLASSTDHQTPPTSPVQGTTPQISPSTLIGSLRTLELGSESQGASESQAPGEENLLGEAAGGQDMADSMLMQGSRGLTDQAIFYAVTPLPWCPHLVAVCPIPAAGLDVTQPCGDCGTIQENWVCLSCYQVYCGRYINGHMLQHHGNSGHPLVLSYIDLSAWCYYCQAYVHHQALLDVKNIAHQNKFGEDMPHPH

HCT-116 [33] = experiment: Antitumor activity against human HCT-116 cells xenografted in mouse assessed as tumor growth inhibition at 15 mg/kg, iv relative to control; type: functional; conditions: read-out: TGI

Chain of Histone deacetylase 2 (Q92769 whole entry): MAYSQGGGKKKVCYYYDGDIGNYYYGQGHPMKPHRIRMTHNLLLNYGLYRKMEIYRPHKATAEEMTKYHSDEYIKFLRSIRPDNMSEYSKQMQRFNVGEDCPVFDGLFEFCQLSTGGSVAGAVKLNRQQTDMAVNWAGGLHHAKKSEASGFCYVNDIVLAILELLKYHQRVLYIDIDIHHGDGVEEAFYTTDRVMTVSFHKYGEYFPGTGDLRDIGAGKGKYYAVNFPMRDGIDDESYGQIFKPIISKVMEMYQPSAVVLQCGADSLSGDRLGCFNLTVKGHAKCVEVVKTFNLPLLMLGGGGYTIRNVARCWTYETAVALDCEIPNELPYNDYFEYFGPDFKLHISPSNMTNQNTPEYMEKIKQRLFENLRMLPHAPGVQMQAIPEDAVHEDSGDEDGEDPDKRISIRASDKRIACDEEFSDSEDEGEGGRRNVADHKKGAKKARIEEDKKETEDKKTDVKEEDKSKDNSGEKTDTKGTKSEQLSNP
Chain of Histone deacetylase 1 (Q13547 whole entry): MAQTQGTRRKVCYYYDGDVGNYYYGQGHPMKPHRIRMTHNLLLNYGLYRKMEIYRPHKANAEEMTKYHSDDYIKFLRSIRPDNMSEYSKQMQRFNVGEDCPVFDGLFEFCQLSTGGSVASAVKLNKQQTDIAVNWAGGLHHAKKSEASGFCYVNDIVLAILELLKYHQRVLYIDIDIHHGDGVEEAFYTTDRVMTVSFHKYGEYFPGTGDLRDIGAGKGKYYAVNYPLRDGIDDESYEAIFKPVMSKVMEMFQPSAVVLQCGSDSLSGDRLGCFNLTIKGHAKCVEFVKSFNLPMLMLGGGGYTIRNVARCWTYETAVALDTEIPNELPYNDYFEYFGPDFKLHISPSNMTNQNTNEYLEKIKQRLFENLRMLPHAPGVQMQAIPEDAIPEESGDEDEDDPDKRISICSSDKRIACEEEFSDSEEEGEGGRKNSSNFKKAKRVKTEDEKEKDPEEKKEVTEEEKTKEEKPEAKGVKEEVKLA
Chain of Histone deacetylase 3 (O15379 whole entry): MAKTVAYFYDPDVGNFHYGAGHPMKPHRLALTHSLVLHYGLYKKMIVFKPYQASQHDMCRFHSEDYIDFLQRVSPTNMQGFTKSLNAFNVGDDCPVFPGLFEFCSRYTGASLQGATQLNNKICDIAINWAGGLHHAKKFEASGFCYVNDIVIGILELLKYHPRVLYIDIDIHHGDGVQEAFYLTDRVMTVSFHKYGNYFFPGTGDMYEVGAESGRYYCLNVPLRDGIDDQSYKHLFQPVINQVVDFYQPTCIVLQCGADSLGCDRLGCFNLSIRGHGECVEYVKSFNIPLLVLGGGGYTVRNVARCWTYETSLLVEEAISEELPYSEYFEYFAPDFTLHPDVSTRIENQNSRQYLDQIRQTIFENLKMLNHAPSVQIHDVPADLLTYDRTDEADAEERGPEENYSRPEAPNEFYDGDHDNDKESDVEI

SMILES: COc1ccc(-c2nc(C(=O)N(CCN(C)C)Cc3ccc(C(=O)NO)cc3)cc3c2[nH]c2ccccc23)cc1
pIC50 (NCI-H1299): 5.80
pIC50 (HepG2 [1]): 5.80
pIC50 (HCT-116 [2]): 5.80
pIC50 (SMMC-7721): 5.80

SMILES: CC(C)n1cnc2c(-c3cccc(OCCCCC(=O)NO)c3)nc(N3CCOCC3)nc21
pIC50 (K562): 6.80
pIC50 (Raji): 6.80
pIC50 (MOLT-4): 6.80
pIC50 (PC-3 [3]): 6.80
IC50 (Histone deacetylase): 35 nM
pIC50 (MV4-11): 6.80
pIC50 (SNU-398): 6.80
pIC50 (MCF7 [4]): 6.80
MTD [5]: 200 mg/kg
pIC50 (Ramos): 6.80
pIC50 (Huh-7): 6.80
pIC50 (SU-DHL-6): 6.80
pIC50 (PLC-PRF-5): 6.80
pIC50 (SNU-387): 6.80
bioavailability [6]: 62%
pIC50 (HepG2 [7]): 6.80
pIC50 (SK-HEP1): 6.80

SMILES: COc1ccc(-c2ocnc2-c2cc(Br)c(OC)c(OC)c2)cc1OCCCC(=O)NO
pIC50 (518A2 [8]): 7.74
selectivity ratio [9]: 8.5
pIC50 (MCF7 [10]): 7.74
Ratio IC50 (EA.hy 926): 1.2
Ratio IC50 (KB-V1 [11]): 1.2
pIC50 [12]: 4.62
pIC50 (KB-V1 [13]): 7.74
pIC50 (HT-29 [14]): 7.74
Ratio IC50 (518A2 [15]): 1.2
Ratio IC50 (DLD-1 [16]): 1.2
pIC50 (DLD-1 [17]): 7.74
Ratio IC50 (MCF7 [18]): 1.2
Ratio IC50 (HT-29 [19]): 1.2

pIC50 (Histone deacetylase 2): 6.04
SMILES: Cc1ccc2c(c1)/C(=N\O)C(=O)N2CCCC(=O)NO
Ratio IC50 (SW-620 [20]): 4.3
Ratio IC50 (PC-3 [21]): 4.3
Ratio IC50 (ASPC1 [22]): 4.3
pIC50 (PC-3 [23]): 6.31
pIC50 (SW-620 [24]): 6.31

clearance [25]: 30.7 mL/min/kg
half-life [26]: 1.65 h
Cmax [27]: 2350 ng/mL
AUC(0-inf) [28]: 1090 ng·h/mL
SMILES: O=C(NO)C(c1ccccc1)c1c(-c2ccc3ccccc3c2)[nH]c2ccccc12 (centres undefined)

pIC50 (Histone deacetylase 3): 8.29
pIC50 (Histone deacetylase 2): 8.29
pIC50 (Histone deacetylase 1): 8.29
pIC50 [32]: 8.29
SMILES: Cc1[nH]c2ccccc2c1CCNS(=O)(=O)c1ccc(/C=C/C(=O)NO)cc1
pIC50 (ASPC1 [29]): 6.31
pIC50 (MDA-MB-231): 7.54
GI50 (A549): 29 nM
pIC50 (ASPC1 [30]): 7.54
pIC50 (HCT-116 [31]): 7.54
inhibition in vivo at 15 mg/kg (HCT-116 [33]): 50.7%
